Test results reported in patent US10292391B2, “Pesticidally active 1,2,4-triazole derivatives with sulphur containing substituents” (Syngenta Participations AG, priority 2015, dated 2019).

Experiments:
Type in all cases: in vivo
[1] = system: Myzus persicae (Green Peach Aphid); assay: Activity against Myzus persicae, sprayed sunflower leaf discs; details: foliar, 144 h, application rate of 200 ppm, aphid population of mixed ages, 6 days after infestation
Method: Sunflower leaf discs were placed on agar in a 24-well microtiter plate and sprayed with aqueous test solutions prepared from 10,000 ppm DMSO stock solutions. After drying, the leaf discs were infested with an aphid population of mixed ages. The samples were assessed for mortality 6 days after infestation.

[2] = system: Thrips tabaci (Onion Thrips); assay: Activity against Thrips tabaci, sprayed sunflower leaf discs; details: foliar, 144 h, application rate of 200 ppm, thrips population of mixed ages, 6 days after infestation
Method: Sunflower leaf discs were placed on agar in 24-well microtiter plates and sprayed with aqueous test solutions prepared from 10,000 ppm DMSO stock solutions. After drying the leaf discs were infested with a thrips population of mixed ages. The samples were assessed for mortality 6 days after infestation.

[3] = system: Plutella xylostella (Diamond Back Moth); assay: Activity against Plutella xylostella, treated artificial diet; details: 120 h, application rate of 200 ppm, L2 larvae, 5 days after infestation, read-out: effect in at least one of the two categories (mortality or growth inhibition)
Method: 24-well microtiter plates with artificial diet were treated with aqueous test solutions prepared from 10,000 ppm DMSO stock solutions by pipetting. After drying, the plates were infested with L2 larvae (10 to 15 per well). The samples were assessed for mortality and growth inhibition in comparison to untreated samples 5 days after infestation.

[4] = system: Diabrotica Balteata (Corn Root Worm); assay: Activity against Diabrotica balteata, sprayed maize sprouts; details: 96 h, application rate of 200 ppm, L2 larvae, 4 days after infestation, read-out: effect in at least one of the two categories (mortality or growth inhibition)
Method: Maize sprouts, placed on an agar layer in 24-well microtiter plates were treated with aqueous test solutions prepared from 10,000 ppm DMSO stock solutions by spraying. After drying, the plates were infested with L2 larvae (6 to 10 per well). The samples were assessed for mortality and growth inhibition in comparison to untreated samples 4 days after infestation.

[5] = system: Spodoptera littoralis (Egyptian Cotton Leaf Worm); assay: Activity against Spodoptera littoralis, sprayed cotton leaf discs; details: foliar, 72 h, application rate of 200 ppm, L1 larvae, 3 days after infestation, read-out: control (at least one of mortality, anti-feedant effect, and growth inhibition)
Method: Cotton leaf discs were placed on agar in 24-well microtiter plates and sprayed with aqueous test solutions prepared from 10,000 ppm DMSO stock solutions. After drying the leaf discs were infested with five L1 larvae. The samples were assessed for mortality, anti-feedant effect, and growth inhibition in comparison to untreated samples 3 days after infestation. Control of Spodoptera littoralis by a test sample is when at least one of mortality, anti-feedant effect, and growth inhibition is higher than the untreated sample.

[6] = system: Frankliniella occidentalis (Western Flower Thrips); assay: Activity against Frankliniella occidentalis, sprayed sunflower leaf discs; details: foliar, 168 h, application rate of 200 ppm, population of mixed ages, 7 days after infestation
Method: Sunflower leaf discs were placed on agar in 24-well microtiter plates and sprayed with aqueous test solutions prepared from 10,000 DMSO stock solutions. After drying the leaf discs were infested with a Frankliniella population of mixed ages. The samples were assessed for mortality 7 days after infestation.

[7] = system: Spodoptera littoralis (Egyptian Cotton Leaf Worm); assay: Activity against Spodoptera littoralis, systemic via lettuce grown on treated agar; details: 144 h, test rate of 12.5 ppm, root uptake by lettuce, 6 days after infestation, read-out: effect in at least one of the three categories (mortality, anti-feedancy, or growth inhibition)
Excerpt: Test compounds were applied by pipette from 10,000 ppm DMSO stock solutions into 24-well plates and mixed with agar. Lettuce seeds were placed on the agar and the multi well plate was closed by another plate which contains also agar. After 7 days the roots have absorbed the compound and the lettuce has grown into the lid plate. The lettuce leafs were now cut off into the lid plate. Spodoptera eggs were pipetted through a plastic stencil on a humid gel blotting paper and the plate closed with it. The samples were assessed for mortality, anti-feedant effect and growth inhibition in comparison to untreated samples 6 days after infestation.

[8] = system: Euschistus heros(Neotropical Brown Stink Bug); assay: Activity against Euschistus heros, sprayed soybean leaf; details: 120 h, application rate of 200 ppm, N-2 nymphs, 5 days after infestation, read-out: effect in at least one of the two categories (mortality or growth inhibition)
Method: Soybean leaf on agar in 24-well microtiter plates were sprayed with aqueous test solutions prepared from 10,000 ppm DMSO stock solutions. After drying the leaf were infested with N-2 nymphs. The samples were assessed for mortality and growth inhibition in comparison to untreated samples 5 days after infestation.

[9] = system: Myzus persicae (Green Peach Aphid); assay: Activity against Myzus persicae, systemic via roots of pea seedlings; details: 144 h, test rate of 24 ppm, roots of pea seedlings in test solution, 6 days
Method: Roots of pea seedlings infested with an aphid population of mixed ages were placed directly in the aqueous test solutions prepared from 10,000 DMSO stock solutions. The samples were assessed for mortality 6 days after placing seedlings in test solutions.

CCS(=O)(=O)c1cc(-n2cc(Cl)cn2)cnc1-c1nnc(-c2cc(C(F)(F)F)ccn2)n1C [Compound P7]
≥ 80%: mortality at 200 ppm [1] | mortality at 200 ppm [2] | percent effect (mortality or growth inhibition) at 200 ppm [3] | percent effect (mortality or growth inhibition) at 200 ppm [4] | mortality at 200 ppm [5] | mortality at 200 ppm [6] | percent control (mortality, anti-feedancy or growth inhibition) at 12.5 ppm [7] | percent effect (mortality or growth inhibition) at 200 ppm [8]

CCS(=O)(=O)c1cc(-c2ncccn2)cnc1-c1nnc(-c2cc(C(F)(F)F)ccn2)n1C [Compound P9, 2-[5-ethylsulfonyl-6-[4-methyl-5-[4-(trifluoromethyl)-2-pyridyl]-1,2,4-triazol-3-yl]-3-pyridyl]pyrimidine]
≥ 80%: mortality at 200 ppm [1] | mortality at 24 ppm [9] | percent effect (mortality or growth inhibition) at 200 ppm [3] | percent effect (mortality or growth inhibition) at 200 ppm [4] | mortality at 200 ppm [5] | mortality at 200 ppm [6] | percent control (mortality, anti-feedancy or growth inhibition) at 12.5 ppm [7] | percent effect (mortality or growth inhibition) at 200 ppm [8]

C=Cc1cnc(-c2nnc(-c3cc(C(F)(F)F)ccn3)n2C)c(S(=O)(=O)CC)c1 [Compound P12, 3-ethylsulfonyl-2-[4-methyl-5-[4-(trifluoromethyl)-2-pyridyl]-1,2,4-triazol-3-yl]-5-vinyl-pyridine]
≥ 80%: mortality at 200 ppm [1] | mortality at 24 ppm [9]

C=C(OCC)c1cnc(-c2nnc(-c3cc(C(F)(F)F)ccn3)n2C)c(S(=O)(=O)CC)c1 [Compound P13]
≥ 80%: mortality at 200 ppm [1] | mortality at 200 ppm [2] | percent effect (mortality or growth inhibition) at 200 ppm [3] | percent effect (mortality or growth inhibition) at 200 ppm [4] | mortality at 200 ppm [5] | mortality at 200 ppm [6]

CCS(=O)(=O)c1cc(-n2cnc(C#N)c2)cnc1-c1nnc(-c2cc(C(F)(F)F)ccn2)n1C [Compound P15]
≥ 80%: mortality at 24 ppm [9] | mortality at 200 ppm [2]

CCS(=O)(=O)c1cc(-c2ccc(C#N)cn2)cnc1-c1nnc(-c2cc(C(F)(F)F)ccn2)n1C [Compound P22]
≥ 80%: mortality at 200 ppm [1] | mortality at 200 ppm [2] | percent effect (mortality or growth inhibition) at 200 ppm [3] | percent effect (mortality or growth inhibition) at 200 ppm [4] | mortality at 200 ppm [5] | mortality at 200 ppm [6] | percent control (mortality, anti-feedancy or growth inhibition) at 12.5 ppm [7] | percent effect (mortality or growth inhibition) at 200 ppm [8]

CCS(=O)(=O)c1cc(-c2cc(C#N)ccn2)cnc1-c1nnc(-c2cc(C(F)(F)F)ccn2)n1C [Compound P23]
≥ 80%: mortality at 200 ppm [1] | mortality at 24 ppm [9] | mortality at 200 ppm [2] | percent effect (mortality or growth inhibition) at 200 ppm [3] | percent effect (mortality or growth inhibition) at 200 ppm [4] | mortality at 200 ppm [5] | mortality at 200 ppm [6] | percent control (mortality, anti-feedancy or growth inhibition) at 12.5 ppm [7] | percent effect (mortality or growth inhibition) at 200 ppm [8]

CCS(=O)(=O)c1cc(-c2ccc(Cl)cn2)cnc1-c1nnc(-c2cc(C(F)(F)F)ccn2)n1C [Compound P25]
≥ 80%: mortality at 200 ppm [2] | percent effect (mortality or growth inhibition) at 200 ppm [3] | percent effect (mortality or growth inhibition) at 200 ppm [4] | mortality at 200 ppm [5] | percent control (mortality, anti-feedancy or growth inhibition) at 12.5 ppm [7] | percent effect (mortality or growth inhibition) at 200 ppm [8]

CCS(=O)(=O)c1cc(-c2cc(Cl)ccn2)cnc1-c1nnc(-c2cc(C(F)(F)F)ccn2)n1C [Compound P26]
≥ 80%: mortality at 200 ppm [1] | mortality at 200 ppm [2] | percent effect (mortality or growth inhibition) at 200 ppm [3] | percent effect (mortality or growth inhibition) at 200 ppm [4] | mortality at 200 ppm [5] | mortality at 200 ppm [6] | percent control (mortality, anti-feedancy or growth inhibition) at 12.5 ppm [7] | percent effect (mortality or growth inhibition) at 200 ppm [8]

CCS(=O)(=O)c1cc(C2CC2)cnc1-c1nnc(-c2cc(C(F)(F)F)ccn2)n1C [Compound P29, 5-cyclopropyl-3-ethylsulfonyl-2-[4-methyl-5-[4-(trifluoromethyl)-2-pyridyl]-1,2,4-triazol-3-yl]pyridine]
≥ 80%: mortality at 200 ppm [1] | mortality at 24 ppm [9] | mortality at 200 ppm [2] | percent effect (mortality or growth inhibition) at 200 ppm [3] | percent effect (mortality or growth inhibition) at 200 ppm [4] | mortality at 200 ppm [5] | percent control (mortality, anti-feedancy or growth inhibition) at 12.5 ppm [7]

CCS(=O)(=O)c1cc([S+]([O-])C(F)(F)F)cnc1-c1nnc(-c2cc(C(F)(F)F)ccn2)n1C (stereo not drawn) [Compound P36, 3-ethylsulfonyl-2-[4-methyl-5-[4-(trifluoromethyl)-2-pyridyl]-1,2,4-triazol-3-yl]-5-(trifluoromethylsulfinyl)pyridine]
≥ 80%: mortality at 24 ppm [9] | percent effect (mortality or growth inhibition) at 200 ppm [4]

CCS(=O)(=O)c1ccc(-c2ncccn2)nc1-c1nnc(-c2cc(C(F)(F)F)ccn2)n1C [Compound P39]
≥ 80%: mortality at 200 ppm [1] | mortality at 24 ppm [9] | percent effect (mortality or growth inhibition) at 200 ppm [3] | percent effect (mortality or growth inhibition) at 200 ppm [4] | mortality at 200 ppm [5] | percent control (mortality, anti-feedancy or growth inhibition) at 12.5 ppm [7] | percent effect (mortality or growth inhibition) at 200 ppm [8]

CCS(=O)(=O)c1cc(-n2cncn2)cnc1-c1nnc(-c2cc(C(F)(F)F)ncn2)n1C [Compound P46]
≥ 80%: mortality at 200 ppm [1] | mortality at 24 ppm [9] | percent effect (mortality or growth inhibition) at 200 ppm [4] | mortality at 200 ppm [6]

CCS(=O)(=O)c1ccc(-n2cncn2)nc1-c1nnc(-c2cc(C(F)(F)F)ncn2)n1C [Compound P47]
≥ 80%: mortality at 200 ppm [1] | mortality at 24 ppm [9] | percent effect (mortality or growth inhibition) at 200 ppm [4] | percent effect (mortality or growth inhibition) at 200 ppm [8]

CCS(=O)(=O)c1ccc(-c2ncccn2)nc1-c1nnc(-c2cc(C(F)(F)F)ncn2)n1C [Compound P54]
≥ 80%: mortality at 200 ppm [1] | mortality at 24 ppm [9] | percent effect (mortality or growth inhibition) at 200 ppm [3] | percent effect (mortality or growth inhibition) at 200 ppm [4] | mortality at 200 ppm [6] | percent effect (mortality or growth inhibition) at 200 ppm [8]
